In paper PMC7367283, “A PIP2 substitute mediates voltage sensor-pore coupling in KCNQ activation” (Communications Biology, 2020):
“And” between values parts separate entries of the source, which are not always exact repeats. Equal entries are not always repeated.

Tests used:
Assay in all cases: Two-electrode voltage clamp of mutant KCNQ1 in Xenopus oocytes
Assay type in all cases: cell-based
KCNQ1 R243A = KCNQ1 R243A (Homo sapiens, UniProt P51787, R243A); settings: 10 µM CP1, individual oocytes
From the text: (§1) In a previous study, mutation of residues in the predicted PIP2-binding site reduced KCNQ1 currents. CP1 modifies voltage-dependent activation of KCNQ1 channels by shifting the voltage dependence of channel opening, measured as the voltage dependence of the conductance (G–V) relationship, to more negative voltages (Fig. 1c) among other characteristics (see below). We made mutations to the residues around the CP1-interacting pocket as indicated by molecular docking (Fig. 1b), and examined the effects of the mutations on the CP1-induced shift of the G–V relationship. The mutations of the KCNQ1 residues that interact with CP1 in docking simulations reduced the shift of the G–V relationship (Fig. 1c, d), supporting the interaction of these residues with CP1.
(§2) Complementary DNA (cDNA) encoding human KCNQ1 (UniProtKB/Swiss‐Prot under accession no. P51787), KCNQ2 (O43526), KCNQ3 (O43525), KCNE1 (P15382), Kir1.1 (P48048), hERG (Q12809), KV4.2 (Q63881), NaV1.5 (Q14524), NaV β1 (Q07699), CaV1.2 (Q13936), CaV β1a (Q02641), CaV α2/δ1 (P54289), and HCN4 (Q9Y3Q4) were subcloned into oocyte expression vectors, respectively. Site-directed mutations of the KCNQ1 channel were all produced by overlap extension polymerase chain reaction (PCR) with high-fidelity Pfu polymerase (Stratagene, CA). The presence of the desired mutation was verified by sequencing the PCR-amplified regions. All the primer sequences used in this study are available in Supplementary Table 1. The complementary RNA (cRNA) of all these channels and mutations was transcribed in vitro with the T3, T7, or SP6 polymerase mMessage mMachine kit (Invitrogen, Thermo Fisher Scientific, MO).
(§3) The use of Xenopus laevis to obtain oocytes was approved by the Washington University Animal Studies Committee (protocol #20190030). Oocytes were manually dispersed and digested with collagenase (0.5 mg/ml, Sigma-Aldrich, Saint Louis, MO) to remove the follicle cell layer. Stage V or VI oocytes were selected and injected with cRNAs (9.2 ng) of channel or mutations. Especially, to characterize IKs, a mix of cRNAs at a molar ratio 4:1 (KCNQ1:KCNE1) was injected. For KCNQ2/KCNQ3, the molar ratio was 1:1 (KCNQ2:KCNQ3). For sodium channels, a 3:1 molar ratio (β1:NaV1.5) and for calcium channels a weight ratio 1:1:1 (β1:α2/δ1:CaV1.2) was injected, respectively. Injected oocytes were incubated in ND96 solution containing (in mM) 96 NaCl, 2 KCl, 1.8 CaCl2, 1 MgCl2, and 5 HEPES, pH 7.6, supplemented with 2.5 mM Na pyruvate and 1% penicillin–streptomycin, at 18 °C for 3–7 days before recording.
(§4) The whole-oocyte ionic currents were recorded with a GeneClamp 500B amplifier (Axon Instruments, CA) or iTEV90 amplifier (HEKA, Germany) and then sampled at 1 kHz and low-pass-filtered at 2 kHz. The Patchmaster software (HEKA, Germany) was used to acquire data. The Kir1.1 current was recorded with a high K^+ bath solution containing (in mM) 96 KCl, 4 NaCl, 1 CaCl2, 2 MgCl2, and 10 HEPES, pH 7.3–7.4. The HCN4 current was recorded in ND66 solution containing (in mM) 66 NaCl, 32 KCl, 1.8 CaCl2, 1 MgCl2, and 5 HEPES, pH 7.6. All the other potassium channels were recorded in ND96 solution. The currents of CaV1.2 channel were recorded in 40 mM Ba^2+ bath solution containing (in mM) 40 Ba(OH)2, 50 TEA-OH, 2 KOH, and 5 HEPES, adjusted to pH 7.4 with methanesulfonic acid. CP1 (DISODIUM 5-BROMO-2-[9-CHLORO-3-(SULFONATOOXY) NAPHTHO [1,2-B] THIEN-2-YL]-1H-INDOL-3-YL SULFATE, Sigma-Aldrich, MO) and Chromanol 293B (Sigma-Aldrich, MO) were dissolved in bath solutions. All the chemicals were purchased from Sigma-Aldrich. To measure the I–V relations of the Kir1.1 channel, the test voltage was set from −100 to +60 mV for 1 s with 20-mV increments. The test pulses were stepped from a holding potential of 0 mV and then stepped back to 0 mV. The HCN4 currents were recorded by a test pulse between −30 and −140 mV in 10-mV step from a holding potential of −30 mV. […]

KCNQ1 R243A/R249A = KCNQ1 R243A/R249A (Homo sapiens, UniProt P51787, R243A/R249A); settings: 10 µM CP1, individual oocytes
From the text: as §1, §2, §3, §4

KCNQ1 R249A/S253A = KCNQ1 R249A/S253A (Homo sapiens, UniProt P51787, R249A/S253A); settings: 10 µM CP1, individual oocytes
From the text: as §1, §2, §3, §4

[1] = target: KCNQ1 R249A/S253A/K354A/K358A (Homo sapiens, UniProt P51787, K354A/K358A/R249A/S253A)
From the text: as §1, §2, §3, §4

KCNQ1 R259A = KCNQ1 R259A (Homo sapiens, UniProt P51787, R259A); settings: 10 µM CP1, individual oocytes
From the text: as §1, §2, §3, §4

KCNQ1 S253A = KCNQ1 S253A (Homo sapiens, UniProt P51787, S253A)
From the text: as §1, §2, §3, §4

KCNQ1 W248R = KCNQ1 W248R (Homo sapiens, UniProt P51787, W248R); settings: 10 µM CP1, individual oocytes
From the text: as §1, §2, §3, §4

For `O=S(=O)([O-])Oc1c(-c2sc3c(ccc4cccc(Cl)c43)c2OS(=O)(=O)[O-])[nH]c2ccc(Br)cc12.[Na+].[Na+]` [CP1, DISODIUM 5-BROMO-2-[9-CHLORO-3-(SULFONATOOXY) NAPHTHO [1,2-B] THIEN-2-YL]-1H-INDOL-3-YL SULFATE], the “∆V1/2” value (KCNQ1 R243A) was 24.1172 mV and 49.8519 mV and 42.6967 mV and 36.2884 mV and 45.9483 mV and 47.7413 mV, the “∆V1/2” value (KCNQ1 R243A/R249A) was 58.531 mV and 59.5008 mV and 36.2737 mV and 44.7577 mV and the “∆V1/2” value (KCNQ1 R249A/S253A) was 49.1729 mV and 54.4047 mV and 38.3473 mV. It also gave a G/Gmax ([1]; 10 µM CP1, 0 mV) of 0.6125, a G/Gmax ([1]; 10 µM CP1, 10 mV) of 0.7412 and a G/Gmax ([1]; 10 µM CP1, 20 mV) of 0.8671. For the same compound, the G/Gmax ([1]; 10 µM CP1, 30 mV) was 0.9470, the G/Gmax ([1]; 10 µM CP1, 40 mV) was 1.0000 and the G/Gmax ([1]; 10 µM CP1, -10 mV) was 0.4658. It also gave a G/Gmax ([1]; 10 µM CP1, -20 mV) of 0.3584, a G/Gmax ([1]; 10 µM CP1, -30 mV) of 0.2410 and a G/Gmax ([1]; 10 µM CP1, -40 mV) of 0.1854. For the same compound, the G/Gmax ([1]; 10 µM CP1, -50 mV) was 0.1254, the G/Gmax ([1]; 10 µM CP1, -60 mV) was 0.1039 and the G/Gmax ([1]; 10 µM CP1, -70 mV) was 0.0777. For the same compound, the G/Gmax ([1]; 10 µM CP1, -80 mV) was 0.0665, the G/Gmax ([1]; 10 µM CP1, -90 mV) was 0.0440 and the G/Gmax ([1]; 10 µM CP1, -100 mV) was 0.0354. The G/Gmax ([1]; 10 µM CP1, -110 mV) was 0.0175, the G/Gmax ([1]; 10 µM CP1, -120 mV) was 0.0015 and the “∆V1/2” value ([1]; 10 µM CP1, individual oocytes) was 21.6716 mV and 20.4143 mV and 21.6154 mV and 29.7699 mV. For the same compound, the “∆V1/2” value (KCNQ1 R259A) was 40.9982 mV and 50.0211 mV and 57.3239 mV and 73.9485 mV, the G/Gmax (KCNQ1 S253A; 10 µM CP1, -10 mV) was 1.0000 and the G/Gmax (KCNQ1 S253A; 10 µM CP1, -20 mV) was 0.9987. For the same compound, the G/Gmax (KCNQ1 S253A; 10 µM CP1, -30 mV) was 0.9693, the G/Gmax (KCNQ1 S253A; 10 µM CP1, -40 mV) was 0.9339 and the G/Gmax (KCNQ1 S253A; 10 µM CP1, -50 mV) was 0.8910. The G/Gmax (KCNQ1 S253A; 10 µM CP1, -60 mV) was 0.8327, the G/Gmax (KCNQ1 S253A; 10 µM CP1, -70 mV) was 0.7485 and the G/Gmax (KCNQ1 S253A; 10 µM CP1, -80 mV) was 0.6141. For the same compound, the G/Gmax (KCNQ1 S253A; 10 µM CP1, -90 mV) was 0.4531, the G/Gmax (KCNQ1 S253A; 10 µM CP1, -100 mV) was 0.2784 and the G/Gmax (KCNQ1 S253A; 10 µM CP1, -110 mV) was 0.1217. The G/Gmax (KCNQ1 S253A; 10 µM CP1, -120 mV) was 0.0000, the “∆V1/2” value (KCNQ1 S253A; 10 µM CP1, individual oocytes) was 62.813 mV and 60.7614 mV and 50.2508 mV and 66.8458 mV and the “∆V1/2” value (KCNQ1 W248R) was 27.0173 mV and 42.5898 mV and 38.6048 mV.
